Paper PMC6202246 (Nature chemical biology, 2018)

System: BRD2BD1, BRD2BD2, BRD3BD1, BRD3BD2, BRD4BD1, BRD4BD2 EGFP reporters
Assay: EGFP/mCherry reporter assay across individual BET bromodomains
Type: cell-based, human
Conditions: BRD2/3/4 BD1 and BD2 reporter cells, 5 h

For Cc1sc2c(c1C)C(c1ccc(Cl)cc1)=N[C@@H](CC(=O)NCCCCCCCCNC(=O)COc1cccc3c1C(=O)N(C1CCC(=O)NC1=O)C3=O)c1nnc(C)n1-2 (stereo partly shown) [dBET6], the “activity profile across BET bromodomain reporters” value was “activity on most bromodomains”.
